In ChEMBL document CHEMBL1201862, “PubChem BioAssay data set” (2004):
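Assay format: 96-well plates, 48-hour exposure. GI50 is the concentration that inhibits growth by half.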 Active and inactive are the calls of the source. Rule as the data show it: active = GI50 up to about 1.1 µM and inactive = higher.

Legend:
Experiment in all cases: inhibition of tumour cell growth, NCI panel, 48 h
BT-549 = system: BT-549
NCI-H23 = system: NCI-H23
NCI/ADR-RES = system: NCI/ADR-RES
K562 = system: K562
OVCAR-3 = system: OVCAR-3
SF-295 = system: SF-295
IGROV-1 = system: IGROV-1
RXF 393 = system: RXF 393
HOP-62 = system: HOP-62
HCC 2998 = system: HCC 2998
SF-539 = system: SF-539
M14 = system: M14
SNB-75 = system: SNB-75
HL-60 = system: HL-60
EKVX = system: EKVX
NCI-H460 = system: NCI-H460
MOLT-4 = system: MOLT-4
HOP-92 = system: HOP-92
SK-MEL-2 = system: SK-MEL-2
MCF7 = system: MCF7

Measured: GI50

COc1ccc2c(c1)C(=O)C1(C2)[C@H](c2ccccc2)C2C(=O)c3cc(OC)ccc3C2[C@H]1c1ccccc1 (stereo not given in full)
inactive: BT-549 > 100 µM | NCI-H23 15.1 µM | NCI/ADR-RES > 100 µM | K562 > 100 µM | OVCAR-3 > 100 µM | SF-295 > 100 µM | IGROV-1 > 100 µM | RXF 393 > 100 µM | HOP-62 > 100 µM | HCC 2998 > 100 µM | SF-539 > 100 µM | M14 > 100 µM | SNB-75 92.3 µM | HL-60 6.21 µM | EKVX > 100 µM | NCI-H460 > 100 µM | MOLT-4 > 100 µM | HOP-92 > 100 µM

[N-]=[N+]=NC1C(Cl)C(=O)NC(=O)N1[C@H]1C[C@H](O)[C@@H](CO)O1 (stereo not given in full)
inactive: NCI-H23 > 100 µM | K562 > 100 µM | OVCAR-3 > 100 µM | SF-295 > 100 µM | IGROV-1 > 100 µM | RXF 393 > 100 µM | HOP-62 > 100 µM | HCC 2998 > 100 µM | SF-539 > 100 µM | M14 > 100 µM | SNB-75 > 100 µM | HL-60 > 100 µM | SK-MEL-2 > 100 µM | EKVX > 100 µM | NCI-H460 > 100 µM | MOLT-4 > 100 µM | HOP-92 > 100 µM

COC(=O)C(C(=O)C(=O)Nc1ccc([N+](=O)[O-])cc1)c1nc2ccc([N+](=O)[O-])cc2nc1O (stereo not given)
inactive: NCI-H23 > 100 µM | K562 39.2 µM | OVCAR-3 > 100 µM | SF-295 > 100 µM | IGROV-1 > 100 µM | RXF 393 > 100 µM | HOP-62 > 100 µM | HCC 2998 > 100 µM | SF-539 > 100 µM | M14 76.6 µM | SNB-75 > 100 µM | HL-60 41.9 µM | SK-MEL-2 > 100 µM | EKVX > 100 µM | NCI-H460 > 100 µM | MOLT-4 > 100 µM | HOP-92 > 100 µM

CC1=C2CC(C)(C)CC(=O)C2(C)CCC1=O (stereo not given)
inactive: BT-549 > 100 µM | NCI-H23 > 100 µM | NCI/ADR-RES > 100 µM | K562 > 100 µM | SF-295 > 100 µM | IGROV-1 > 100 µM | HOP-62 > 100 µM | HCC 2998 > 100 µM | SF-539 > 100 µM | M14 > 100 µM | MCF7 > 100 µM | SNB-75 > 100 µM | HL-60 > 100 µM | SK-MEL-2 > 100 µM | EKVX > 100 µM | NCI-H460 > 100 µM | MOLT-4 > 100 µM

CC(=O)NC(CCCOC(C)=O)C(=O)NC(CCCOC(C)=O)C(=O)NC(CCCOC(C)=O)C(=O)NC(Cc1ccc([N+](=O)[O-])cc1)C(=O)NCC(=O)OCc1ccccc1 (stereo not given)
inactive: NCI-H23 > 100 µM | NCI/ADR-RES > 100 µM | K562 > 100 µM | OVCAR-3 > 100 µM | SF-295 > 100 µM | IGROV-1 > 100 µM | RXF 393 > 100 µM | HOP-62 > 100 µM | HCC 2998 > 100 µM | SF-539 > 100 µM | M14 > 100 µM | MCF7 > 100 µM | SNB-75 > 100 µM | SK-MEL-2 > 100 µM | EKVX > 100 µM | NCI-H460 > 100 µM | MOLT-4 > 100 µM | HOP-92 > 100 µM

COC1=C(NC(C)=O)C(=O)c2nc3n(c2C1=O)CCC3
inactive: NCI-H23 20.4 µM | NCI/ADR-RES 19.5 µM | K562 26.7 µM | OVCAR-3 15.7 µM | SF-295 20.5 µM | IGROV-1 19.3 µM | RXF 393 17.7 µM | HOP-62 20.7 µM | HCC 2998 23.7 µM | SF-539 18.6 µM | M14 18.2 µM | MCF7 23.1 µM | SNB-75 17.6 µM | HL-60 10.1 µM | SK-MEL-2 17.7 µM | EKVX 19.5 µM | NCI-H460 27.5 µM | MOLT-4 4.06 µM | HOP-92 13.2 µM

Cc1ccccc1C1OC1C(=O)c1ccccc1N (stereo not given)
inactive: NCI-H23 38.6 µM | NCI/ADR-RES 51.3 µM | K562 56.8 µM | RXF 393 90.4 µM | HCC 2998 > 100 µM | SF-539 29.9 µM | M14 47.3 µM | MCF7 55.3 µM | SK-MEL-2 43.3 µM | NCI-H460 63.8 µM | MOLT-4 39.3 µM | HOP-92 > 100 µM

COC(=O)C1C2CCCN2OC1(C)CO (stereo not given)
inactive: BT-549 > 100 µM | NCI-H23 > 100 µM | NCI/ADR-RES > 100 µM | K562 > 100 µM | OVCAR-3 > 100 µM | SF-295 > 100 µM | IGROV-1 > 100 µM | HOP-62 > 100 µM | SF-539 > 100 µM | M14 > 100 µM | MCF7 > 100 µM | SNB-75 > 100 µM | HL-60 > 100 µM | SK-MEL-2 > 100 µM | EKVX > 100 µM | NCI-H460 > 100 µM | MOLT-4 > 100 µM
